{
  "source": "patent US20190359560A1",
  "about": "“ANTI-INFLAMMATORY DRUG AND USES THEREOF” (KYUSHU UNIVERSITY, NATIONAL UNIVERSITY CORPORATION, priority 2015, published 2019)",
  "key": {"[1]": {"tested_on": "G0S2 protein", "experiment": "LPS-administered mice: G0S2 protein in liver (Western blotting)", "format": "in vivo", "conditions": "LPS 10 μg/mouse tail vein; 5 mg/kg subcutaneous 1 hour after LPS; liver 5 hours later; vs LPS group", "description": "(§1) LPS (10 μg/mouse) was administered to ICR male mice by tail vein injection to prepare an LPS-administered group. In addition, a mouse to which physiological saline was administered instead of LPS was prepared and used as a control group. Subsequently, the LPS-administered group was divided into two groups, in which 1 hour after the administration of LPS, Compound No. 2 was subcutaneously administered at a dose of 5 mg/kg to the dorsal region of mice of one group which was then served as an LPS+No. 2-administered group. Subsequently, 5 hours after the administration of Compound No. 2, mice of each group were sacrificed and the liver was harvested.\nSubsequently, the expression level of the G0S2 protein in the liver of mice of each group obtained was quantified by Western blotting. FIG. 11A is a graph showing the quantitative results of the G0S2 protein."}, "[2]": {"tested_on": "Bmal1 promoter", "experiment": "Bmal1 promoter luciferase assay in MEF cell line", "format": "cell-based", "conditions": "MEF reporter cell line, 10 μM, 24 hours", "description": "Therefore, in order to exclude compounds having an effect on clock genes in normal cells, studies were conducted using the MEF cell line stably expressing an expression cassette in which a luciferase gene was ligated to the downstream side of the Bmal1 promoter."}, "[3]": {"tested_on": "Ccl2 mRNA", "experiment": "LPS hepatitis model mouse: Ccl2 mRNA in liver", "format": "in vivo", "description": "Next, whether or not Compound No. 2 whose effect in vivo was confirmed has an effect to antagonize the activation of an inflammatory signal was examined. Hepa1-6 cells were exposed to Compound No. 2 at a dose of 10 μM simultaneously with exposure to lipopolysaccharide (LPS) or TNFα which activates NF-κB for which the G0S2 protein acts as a regulator. As shown in FIGS. 10A and 10B, the cells were recovered 12 hours after the exposure and the expression level of Ccl2 mRNA was measured. […] In addition, 25 μg of LPS was administered to the tail vein of a mouse to thereby construct a hepatitis model. 30 minutes after the administration of LPS, Compound No. 2 (5 mg/kg) was administered to the tail vein of the mouse, and the liver was sampled at 6 hours.\nLPS (10 μg/mouse) was administered to ICR male mice by tail vein injection to prepare an LPS-administered group. […]\nIn addition, for the liver of mice of each group, the expression level of mRNA of Ccl2, which is a target gene of NF-κB, was quantified by real-time PCR. FIG. 11C is a graph showing the quantitative results of the expression level of mRNA of Ccl2.\n10 μg of LPS was intraperitoneally administered to mice to construct a hepatitis model. […] 5 hours after the administration of each compound, the liver was harvested from each mouse and the expression level of Ccl2 was quantified by real-time PCR."}, "[4]": {"tested_on": "G0S2 mRNA", "experiment": "G0S2 mRNA expression in Hepa1-6 cells (qRT-PCR)", "format": "cell-based, mouse", "conditions": "48 hours", "description": "The effect of the compound on the expression level of mRNA of the G0S2 gene was evaluated for the three compounds extracted so far. 24 hours after seeding with Hepa1-6 cells, the cells were exposed to hit compounds at 10 μM and sampling and total RNA extraction were carried out 24 hours later. Subsequently, changes in the expression level of mRNA of the G0S2 gene were measured by a qRT-PCR method.\nHepa1-6 cells were exposed to 10 μM of each of seven derivatives of Compound No. 2 (Examples 2 and 4 to 9) and an effect of the derivative compounds on the expression level of G0S2 mRNA after 24 hours was evaluated.\nTherefore, Hepa1-6 cells were exposed to Compound No. 2 and the compound of Example 2 (NS-3-011) in the range of 0.5 to 5 μM and an effect of the compounds on the expression level of endogenous G0S2 mRNA after 48 hours was evaluated.\nSubsequently, Hepa1-6 cells were transfected with siRNA against Hsd17b4 or control siRNA in the presence (10 μM) or absence (indicated as “DMSO” in FIG. 22B) of Compound No. 2. Subsequently, each cell was recovered after 48 hours and total RNA was extracted. Subsequently, the expression level of the G0S2 gene was quantified by real-time PCR."}, "[5]": {"tested_on": "p65 protein (NF-κB)", "experiment": "LPS-administered mice: nuclear abundance of p65 protein in liver (Western blotting)", "format": "in vivo", "conditions": "LPS 10 μg/mouse tail vein; 5 mg/kg subcutaneous 1 hour after LPS; liver 5 hours later; vs LPS group", "description": "as §1\nFor the liver of mice of each group, the nuclear abundance of the p65 protein, which is one of the constituent proteins of NF-κB, was quantified by Western blotting. FIG. 11B is a graph showing the quantitative results of the p65 protein."}},
  "data": [
    {"smiles": "CCCCCCNC(=N)NCc1ccccc1", "note": "[Compound No. 2]", "values": [
      {"measurement": "expression of G0S2 protein in the liver", "setting": "[1]", "value": "significantly inhibited"},
      {"measurement": "Bmal1 promoter activity", "setting": "[2]", "value": "no significant change"},
      {"measurement": "expression level of Ccl2 mRNA in the liver", "setting": "[3]; LPS 10 μg/mouse tail vein, 5 mg/kg subcutaneous 1 hour after LPS, liver 5 hours later, vs LPS group", "value": "significantly decreased"},
      {"measurement": "expression of Ccl2 mRNA in the liver", "setting": "[3]; LPS 25 μg tail vein, compound 5 mg/kg tail vein 30 minutes after LPS, liver at 6 hours", "value": "significantly inhibited"},
      {"measurement": "G0S2 mRNA expression level", "setting": "[4]; 5 μM, vs DMSO", "value": "significant decrease"},
      {"measurement": "effect of lowering the expression level of the G0S2 gene after transfection with siRNA against Hsd17b4", "setting": "[4]; 10 μM", "value": "disappeared"},
      {"measurement": "expression level of the G0S2 gene", "setting": "[4]; 10 μM, control siRNA", "value": "significantly decreased"},
      {"measurement": "nuclear abundance of the p65 protein in the liver", "setting": "[5]", "value": "significantly decreased"}
    ]}
  ]
}
